Assay results: US20170340658A1, “COMBINED USE OF A CHEMOTHERAPEUTIC AGENT AND A CYCLIC DINUCLEOTIDE FOR CANCER TREATMENT” (INVIVOGEN, priority 2014, published 2017)

Legend:
Panc02 pancreatic tumors = assay: Orthotopic Panc02 pancreatic tumors in mice, intercalated combinations (Example 8); format: in vivo, mouse; details: for mean tumor volume: Day 30, CDN 5 mg/kg i.t. Day 9, i.v. Days 16, 23, gemcitabine 100 mg/kg i.p. Days 12, 19, 26; for # Mice with metastases / Average # metastases per mouse: Day 30 post-implantation, CDN 5 mg/kg, gemcitabine 100 mg/kg i.p.
Protocol: • Species evaluated: mouse • Tumor model: Panc02 • Treatment tested: intercalated combinations of a CDN (either CL592, CL614 or CL656) and gemcitabine • Reference compounds: gemcitabine, CL592, CL614 and CL656 • Parameters evaluated: tumor growth, and incidence of metastases
On Day 1, 55 mice (C57/BL6; male; 10 weeks old; 23 g to 25 g) each received an intrapancreatic injection of Panc02 cells (1×10^6 cells in 50 μL serum-free medium).
Day 9: Groups 3 to 8 each received an intratumoral injection of the appropriate CDN (CL592, CL614 or CL656, respectively; 50 μL; 5 mg/kg in 0.9% saline)
Day 12: Group 2 and Groups 6 to 8 each received an intraperitoneal injection of gemcitabine (200 μL; 100 mg/kg in 0.9% saline)
Day 16: Groups 3 to 8 each received an intravenous injection of the appropriate CDN (CL592, CL614 or CL656, respectively; 50 μL; 5 mg/kg in 0.9% saline)
Day 19: Group 2 and Groups 6 to 8 were treated as on Day 12.
Day 23: Groups 3 to 8 were treated as on Day 16.
Day 26: Group 2 and Groups 6 to 8 were treated as on Days 12 and 19.
Day 30: Each mouse was checked for tumor presence and metastases.

Panc02 tumors = assay: Murine model of orthotopic Panc02 pancreatic tumors (Example 4); format: in vivo, mouse; details: for INCIDENCE OF METASTASIS / PRE-SACRIFICE MORTALITY: Day 34
From the text: • Species evaluated: mouse • Tumor model: Panc02 (murine pancreatic tumor cell line) • Treatments tested: gemcitabine monotherapy, c-AIMP monotherapy, and gemcitabine combined with c-AIMP • Clinical parameters evaluated: tumor volume, incidence of metastasis and mortality • Administration routes evaluated: intravenous (i.v.) or intratumoral (i.t.) injection (depending on experiment) • On Day 1, 30 mice (C57BL/6; male) received an orthotopic injection of Panc02 tumor cells (1×10^6) in their pancreas. The mice were then divided into six groups of five animals. Each group received a different treatment, as outlined below: • Group 1: saline (by i.v. injection) on Days 7, 10, 14, 17, 21 and 24; • Group 2: gemcitabine monotherapy (100 mg/kg; i.p.); on Days 7, 10, 14, 17, 21 and 24; • Group 3: c-AIMP monotherapy (25 mg/kg; i.t.) on Days 7 and 21; • Group 4: c-AIMP monotherapy (25 mg/kg; i.v.) on Days 7, 14 and 21; • Group 5: c-AIMP (25 mg/kg; i.t.) followed (5 h later) by gemcitabine (100 mg/kg; i.p.) on Day 7; and gemcitabine (100 mg/kg; i.p.) on Days 10, 14, 17, 21 and 24; • Group 6: c-AIMP (25 mg/kg; i.v.) followed (5 h later) by gemcitabine (100 mg/kg; i.p.) on Day 7; and gemcitabine (100 mg/kg; i.p.) on Days 10, 14, 17, 21 and 24;
At days 7, 21/24, 28 and 34, the mice were assessed for tumor volume, incidence of metastasis and mortality.

Type I interferons = assay: Type I interferon induction in sera of CDN-treated mice (Example 3); format: in vivo, mouse; details: 10 mg/kg i.v., 4 h post-treatment, FIG. 5
From the text: (§1) • Species evaluated: mouse • Cyclic dinucleotides tested: CL604, CL606, CL609, CL611 and CL614 • Reference compound: c-AIMP and saline • Cytokines evaluated: IFN-α/β (using RAW ISG54 reporter cells) and IL-6 (by ELISA)
(§2) Twenty-one mice (Swiss; female; mean age: 8 weeks) were divided into seven groups of three: one group served as control (saline) and the other six groups were each treated with a cyclic dinucleotide (either c-AIMP, CL604, CL606, CL609, CL611 or CL614). On Day −7, blood samples for basal cytokine levels were collected from all mice and stored at −20° C. until analysis. On Day 1, the mice were treated with either 200 μL of physiologic serum (containing 0.9% NaCl) or 200 μL of a solution of a cyclic dinucleotide (dose: 10 mg/kg) in physiologic serum (containing 0.9% NaCl), by intravenous (i.v.) injection. Blood samples were collected from the mice at 4 h post-injection, and then stored at −20° C. until analysis. Cytokine induction was measured in the sera from the blood samples.

IL-6 = IL-6 induction in sera of CDN-treated mice, ELISA (Example 3); format: in vivo, mouse; details: 10 mg/kg i.v., 4 h post-treatment, FIG. 6
From the text: Interleukin-6 was quantified using an enzyme-linked immunoassay (ELISA) according to the manufacturer's instructions (R&D Systems).
as §1, §2

PC-1.0 tumors = assay: Hamster model of orthotopic PC-1.0 pancreatic tumors (Example 5); format: in vivo; details: gemcitabine monotherapy 50 mg/Kg i.p.
From the text: • Species evaluated: hamster • Tumor model: PC-1.0 (hamster pancreatic tumor cell line (Egami, Tomioka, Tempero, Kay, & Pour, 1991)) • Treatments tested: gemcitabine monotherapy, and gemcitabine combined with c-AIMP • Clinical parameters evaluated: tumor volume, incidence of metastasis and mortality • Administration routes evaluated: intravenous (i.v.) vs. intratumoral (i.t.) injection (depending on experiment) for CL592 • On Day 1, 22 hamsters (Golden Syrian) received an orthotopic injection of PC-1.0 tumor cells (1×10^6) in the tail of their pancreas. The hamsters were then divided into four groups of five or six animals. Each group received a different treatment, as outlined below: • Group 1 (n=5) received saline (by i.v. injection) on Days 8, 15 and 22; • Group 2 (n=6): c-AIMP (25 mg/Kg; i.v.) followed by gemcitabine (50 mg/Kg; i.p.) on Day 8; and gemcitabine (50 mg/Kg; i.p.) on Days 15 and 22; • Group 3 (n=6): c-AIMP (25 mg/Kg; i.t.) followed by gemcitabine (50 mg/Kg; i.p.) on Day 8; and gemcitabine (50 mg/Kg; i.p.) on Days 15 and 22; • Group 4 (n=5): gemcitabine monotherapy (50 mg/Kg; i.p.) at Days 8, 15 and 22.
At days 8, 21/24, 28 and 34, the mice were assessed for tumor volume, incidence of metastasis and mortality.

DT6606 pancreatic tumors = details: Day 36 vs pre-treatment tumor volume; CL592 i.t. Day 13, 5 mg/kg i.v. Days 20, 27; gemcitabine 100 mg/kg i.p. Days 16, 23, 30
Protocol: • Tumor line evaluated: DT6606 (Partecke, 2011) • Treatment tested: intercalated combination of CL592 and gemcitabine • Reference compound: gemcitabine • Parameter evaluated: tumor growth
On Day 1, 20 mice (C57/BL6; female; 10 weeks old; 18 g to 22 g) received an intrapancreatic injection of DT6606 cells (5×10^5 cells in 30 μL serum-free medium). One mouse was sacrificed before treatment due to a renal deformation.
The groups were then treated according to the treatment regimen below.
Day 13: Groups 1 and 2 received an intratumoral injection of saline solution (50 μL), and Groups 3 and 4, an intratumoral injection of CL592 (50 μL; 2.5 mg/mL in saline buffer;).
Day 16: Groups 2 and 4 received an intraperitoneal tail injection of gemcitabine (100 μL solution/100 g body mass; 10 mg/mL in saline buffer; dose: 100 mg/kg).
Day 20: Groups 3 and 4 received an intravenous tail injection of CL592 (200 μL; 0.5 mg/mL in saline buffer; dose: 5 mg/kg).
Day 23: Groups 2 and 4 were treated as on Day 16.
Day 27: Groups 3 and 4 were treated as on Day 20.
Day 30: Groups 2 and 4 were treated as on Days 16 and 23.
Day 36: Each mouse was checked for tumor presence. The volume of each observed tumor was measured and the mice were then sacrificed.
Tumor growth (expressed as a percentage) was calculated as follows:
(([tumor volume at day 36]−[pre-treatment tumor volume])/[pre-treatment tumor volume])×100%

[1] = c-AIMP 25 mg/kg i.t., alone or with gemcitabine 100 mg/kg i.p.
[2] = c-AIMP 25 mg/kg i.v., alone or with gemcitabine 100 mg/kg i.p.
[3] = gemcitabine monotherapy 100 mg/kg i.p.

Q: How did the mean tumor volume (Panc02 pancreatic tumors) turn out when `Nc1ncnc2c1ncn2C1OC2COP(=O)(S)O[C@@H]3C(COP(=O)(S)O[C@H]2[C@H]1F)OC(n1cnc2c(=O)[nH]cnc21)[C@@H]3F` (mixture of isomers) [CL656, c-[2′FdAMP(S)-2′FdIMP(S)]] was run?
A: The mean tumor volume was 340.2 mm^3.

Q: What about the “# Mice with metastases” value (Panc02 pancreatic tumors) of the same compound?
A: Its value is 40% (2/5).

Q: And the “Average # metastases per mouse” value (Panc02 pancreatic tumors)?
A: Its value is 3.

Q: `Nc1ncnc2c1ncn2[C@@H]1O[C@@H]2COP(=O)(O)O[C@H]3[C@@H](O)[C@H](n4cnc5c(=O)[nH]cnc54)O[C@@H]3COP(=O)(O)O[C@H]2[C@H]1O` [CL592, c-AIMP] was tested. Which mean tumor volume (Panc02 pancreatic tumors) did it give?
A: The mean tumor volume was 231.0 mm^3.

Q: What about the “# Mice with metastases” value (Panc02 pancreatic tumors) of the same compound?
A: The value was 20% (1/5).

Q: What about the “Average # metastases per mouse” value (Panc02 pancreatic tumors) of the same compound?
A: The value was 2.

Q: What about the “INCIDENCE OF METASTASIS” value (Panc02 tumors; [1]) of the same compound?
A: The value was 0%.

Q: What about the “PRE-SACRIFICE MORTALITY” value (Panc02 tumors; [1]) of the same compound?
A: Its value is 0%.

Q: What about the “INCIDENCE OF METASTASIS” value (Panc02 tumors; [2]) of the same compound?
A: The value was 0%.

Q: And the “PRE-SACRIFICE MORTALITY” value (Panc02 tumors; [2])?
A: Its value is 0%.

Q: What about the reducing tumor growth (Panc02 tumors; FIG. 7, c-AIMP 25 mg/kg i.v. or i.t., comparison among all treatments) of the same compound?
A: The reducing tumor growth was “most effective ones at reducing tumor growth”.

Q: What does the source list for `Nc1ncnc2c1ncn2C1OC2COP(=O)(O)O[C@H]3C(n4cnc5c(=O)[nH]cnc54)OC(COP(=O)(O)O[C@@H]1[C@@H]2O)[C@H]3O` (stereo partly drawn) [CL611, (2′,2′)c-AIMP]?
A: induction of Type I interferons in sera (Type I interferons): all of the tested cyclic dinucleotides except CL611 strongly induced Type I interferons; induction of IL-6 in sera (IL-6): all of the cyclic dinucleotides except CL611 induced IL-6

Q: Which results are given for `Nc1ncnc2c1ncn2C1OC2COP(=O)(O)O[C@@H]3C(COP(=O)(O)O[C@H]2[C@H]1F)OC(n1cnc2c(=O)[nH]cnc21)[C@@H]3F` (stereo partly drawn) [CL614, c-(2′FdAMP-2′FdIMP)]?
A: mean tumor volume (Panc02 pancreatic tumors): 318.6 mm^3; # Mice with metastases (Panc02 pancreatic tumors): 40% (2/5); Average # metastases per mouse (Panc02 pancreatic tumors): 5

Q: For `Nc1ccn([C@@H]2O[C@H](CO)[C@@H](O)C2(F)F)c(=O)n1` [gemcitabine, Gemcitabine], which mean tumor volume (Panc02 pancreatic tumors) is on record?
A: Its mean tumor volume is 380.7 mm^3.

Q: And the “# Mice with metastases” value (Panc02 pancreatic tumors)?
A: The value was 88% (7/8).

Q: What about the “Average # metastases per mouse” value (Panc02 pancreatic tumors) of the same compound?
A: Its value is 13.

Q: What about the “INCIDENCE OF METASTASES” value (PC-1.0 tumors) of the same compound?
A: The value was 100%.

Q: What about the “NUMBER OF METASTASES PER HAMSTER, Hamster 1” value (PC-1.0 tumors) of the same compound?
A: The value was 13.

Q: What about the “NUMBER OF METASTASES PER HAMSTER, Hamster 2” value (PC-1.0 tumors) of the same compound?
A: The value was 15.

Q: And the “NUMBER OF METASTASES PER HAMSTER, Hamster 3” value (PC-1.0 tumors)?
A: Its value is 3.

Q: What about the “NUMBER OF METASTASES PER HAMSTER, Hamster 4” value (PC-1.0 tumors) of the same compound?
A: The value was 10.

Q: What about the “NUMBER OF METASTASES PER HAMSTER, Hamster 5” value (PC-1.0 tumors) of the same compound?
A: Its value is 5.

Q: What about the “INCIDENCE OF METASTASES” value (PC-1.0 tumors; listed as GemC) of the same compound?
A: The value was 100%.

Q: And the “INCIDENCE OF METASTASIS” value (Panc02 tumors; [3])?
A: Its value is 50%.

Q: And the “PRE-SACRIFICE MORTALITY” value (Panc02 tumors; [3])?
A: The value was 20%.

Q: And the “PRE-SACRIFICE MORTALITY” value (Panc02 tumors; gemcitabine monotherapy 100 mg/kg i.p., listed as GemC)?
A: The value was 20%.

Q: And the mean tumor growth (DT6606 pancreatic tumors)?
A: Its mean tumor growth is 22%.
